We go through 17 compounds from US10882844B2, “Compounds useful as immunomodulators” (Bristol-Myers Squibb Company, priority 2016, dated 2021).

Sequence of PD-1/PD-L1 (Q9NZQ7 other isoform, or with tags, fused parts or gaps): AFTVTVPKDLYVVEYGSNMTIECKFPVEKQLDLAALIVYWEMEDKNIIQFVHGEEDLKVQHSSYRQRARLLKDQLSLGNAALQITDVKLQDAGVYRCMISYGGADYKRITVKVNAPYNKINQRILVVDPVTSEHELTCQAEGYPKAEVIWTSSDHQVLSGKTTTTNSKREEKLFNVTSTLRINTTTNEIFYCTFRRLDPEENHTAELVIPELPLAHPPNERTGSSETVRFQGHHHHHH

The target in one assay is PD-1/PD-L1 (Homo sapiens (Human), UniProt Q9NZQ7). In words: PD-1/PD-L1 Homogenous Time-Resolved Fluorescence (HTRF) binding assay. Particulars: PD-1-Ig / PD-L1-His HTRF; value given as number; read-out: Range or IC50. An excerpt:
The ability of the compounds of formula (I) to bind to PD-L1 was investigated using a PD-1/PD-L1 Homogenous Time-Resolved Fluorescence (HTRF) binding assay.
Homogenous Time-Resolved Fluorescence (HTRF) binding assay.
The interaction of PD-1 and PD-L1 can be assessed using soluble, purified preparations of the extracellular domains of the two proteins. The PD-1 and PD-L1 protein extracellular domains were expressed as fusion proteins with detection tags, for PD-1, the tag was the Fc portion of Immunoglobulin (PD-1-Ig) and for PD-L1 it was the 6 histidine motif (PD-L1-His). All binding studies were performed in an HTRF assay buffer consisting of dPBS supplemented with 0.1% […] bovine serum albumin and 0.05% (v/v) Tween-20. For the h/PD-L1-His binding assay, inhibitors were pre-incubated with PD-L1-His (10 nM final) for 15 m in 4 μl of assay buffer, followed by addition of PD-1-Ig (20 nM final) in 1 μl of assay buffer and further incubation for 15 m. HTRF detection was achieved using europium crypate-labeled anti-Ig (1 nM final) and allophycocyanin (APC) labeled anti-His (20 nM final). Antibodies were diluted in HTRF detection buffer and 5 μl was dispensed on top of the binding reaction. The reaction mixture was allowed to equilibrate for 30 minutes and the resulting signal (665 nm/620 nm ratio) was obtained using an EnVision fluorometer. Additional binding assays were established between the human proteins PD-1-Ig/PD-L2-His (20 & 5 nM, respectively) and CD8O-His/PD-L1-Ig (100 & 10 nM, respectively).
Recombinant Proteins: Human PD-1 (25-167) with a C-terminal human Fc domain of immunoglobulin G (Ig) epitope tag [hPD-1 (25-167)-3S-IG] and human PD-L1 (18-239) with a C-terminal His epitope tag [hPD-L1(18-239)-TVMV-His] were expressed in HEK293T cells and purified sequentially by ProteinA affinity chromatography and size exclusion chromatography. Human PD-L2-His and CD80-His was obtained through commercial sources.
The table below lists the IC50 values for representative examples of this disclosure measured in the PD-1/PD-L1 Homogenous Time-Resolved Fluorescence (HTRF) binding assay. Ranges are as follows: A=0.18 nM-0.99 nM; B=1.0 nM-5.0 nM; C=5.01 nM-10.1 nM; D=10.2 nM-200 nM; E=201 nM→10 uM
A general note: TR-FRET usually uses a lanthanide donor and a delayed reading to cut background.
The IC50 is the concentration that inhibits the measured activity by half. For the compound `Cc1c(COc2cc(OCc3cncc(C#N)c3)c(CN3CCCC[C@H]3C(=O)O)cc2Cl)cccc1-c1ccc2oc(C3CCN(C)C3)nc2c1` (stereo partly drawn) [Example 1008, (2S)-1-(5-chloro-2-((5-cyanopyridin-3-yl)methoxy)-4-((2-methyl-3-(2-(1-methylpyrrolidin-3-yl)benzo[d]oxazol-5-yl)benzyl)oxy)benzyl)piperidine-2-carboxylic Acid], the IC50 came out at 0.67 nM.

The assay is the same for the next values; noted with them: PD-1-Ig / PD-L1-His HTRF; value given as range class; read-out: Range or IC50.
On to `Cc1c(COc2cc(OCc3cncc(C#N)c3)c(CN3CCCC[C@H]3C(=O)O)cc2Cl)cccc1-c1ccc2oc(C3CCC(C(=O)O)CC3)nc2c1` (single isomer, unassigned) [Example 1025], for which the IC50 is 0.18 to 0.99 nM.

As for `Cc1c(COc2cc(OCc3cncc(C#N)c3)c(CN3CCCC[C@H]3C(=O)O)cc2Cl)cccc1-c1ccc2oc(C3CCC(C(=O)O)CC3)nc2c1` (single isomer, unassigned) [Example 1026], the 50% inhibitory concentration (IC50) was in the range of 201 to 10000 nM. On the same count and under the same terms, as for `Cc1c(COc2cc(OCc3cncc(C#N)c3)c(CN3CCCC[C@H]3C(=O)O)cc2Cl)cccc1-c1ccc2oc(C3CCN(C)CC3)nc2c1` [Example 1001, (S)-1-(5-chloro-2-((5-cyanopyridin-3-yl)methoxy)-4-((2-methyl-3-(2-(1-methylpiperidin-4-yl)benzo[d]oxazol-5-yl)benzyl)oxy)benzyl)piperidine-2-carboxylic Acid], the figure is 0.18 to 0.99 nM.

`Cc1c(COc2cc(OCc3cncc(C#N)c3)c(CN3CCCC[C@H]3C(=O)O)cc2Cl)cccc1-c1ccc2nc(C3CCN(C)CC3)oc2c1` [Example 1002, (S)-1-(5-chloro-2-((5-cyanopyridin-3-yl)methoxy)-4-((2-methyl-3-(2-(1-methylpiperidin-4-yl)benzo[d]oxazol-6-yl)benzyl)oxy)benzyl)piperidine-2-carboxylic Acid]: the IC50 lay within 1 to 5 nM. Consider `Cc1c(COc2cc(OCc3cncc(C#N)c3)c(CN3CCCC[C@H]3C(=O)O)cc2Cl)cccc1-c1ccc2oc(C3CCCN(C)C3)nc2c1` (stereo partly drawn) [Example 1003, (2S)-1-(5-chloro-2-((5-cyanopyridin-3-yl)methoxy)-4-((2-methyl-3-(2-(1-methylpiperidin-3-yl)benzo[d]oxazol-5-yl)benzyl)oxy)benzyl)piperidine-2-carboxylic Acid], for which the half-inhibitory concentration (IC50) is 1 to 5 nM.

As to `Cc1c(COc2cc(OCc3cncc(C#N)c3)c(CN3CCCC[C@H]3C(=O)O)cc2Cl)cccc1-c1ccc2oc(C3CCNCC3)nc2c1` [Example 1004, (S)-1-(5-chloro-2-((5-cyanopyridin-3-yl)methoxy)-4-((2-methyl-3-(2-(piperidin-4-yl)benzo[d]oxazol-5-yl)benzyl)oxy)benzyl)piperidine-2-carboxylic Acid], the concentration for half-maximal inhibition (IC50) is 1 to 5 nM. Still for that read-out and setting: then `Cc1c(COc2cc(OCc3cncc(C#N)c3)c(CN3CCCC[C@H]3C(=O)O)cc2Cl)cccc1-c1ccc2oc(C3CCN(C4CC4)CC3)nc2c1` [Example 1005, (S)-1-(5-chloro-2-((5-cyanopyridin-3-yl)methoxy)-4-((3-(2-(1-cyclopropylpiperidin-4-yl)benzo[d]oxazol-5-yl)-2-methylbenzyl)oxy)benzyl)piperidine-2-carboxylic Acid], with 1 to 5 nM.

For `Cc1c(COc2cc(OCc3cncc(C#N)c3)c(CN3CCCC[C@H]3C(=O)O)cc2Cl)cccc1-c1ccc2oc(C3CC4CCC(C3)N4)nc2c1` (stereo partly drawn) [Example 1006, (2S)-1-(4-((3-(2-(8-azabicyclo[3.2.1]octan-3-yl)benzo[d]oxazol-5-yl)-2-methylbenzyl)oxy)-5-chloro-2-((5-cyanopyridin-3-yl)methoxy)benzyl)piperidine-2-carboxylic Acid], the IC50 was in the range of 1 to 5 nM.

Regarding `Cc1c(COc2cc(OCc3cncc(C#N)c3)c(CN3CCCC[C@H]3C(=O)O)cc2Cl)cccc1-c1ccc2oc(-c3ccncc3)nc2c1` [Example 1007, (S)-1-(5-chloro-2-((5-cyanopyridin-3-yl)methoxy)-4-((2-methyl-3-(2-(pyridin-4-yl)benzo[d]oxazol-5-yl)benzyl)oxy)benzyl)piperidine-2-carboxylic Acid], the 50% inhibitory concentration (IC50) lay within 1 to 5 nM. The same measure, in the same setting: as for `Cc1c(COc2cc(OCc3cncc(C#N)c3)c(CN3CCCC[C@H]3C(=O)O)cc2Cl)cccc1-c1cc(C)c2oc(C3CCN(C)CC3)nc2c1` [Example 1009, (S)-1-(5-chloro-2-((5-cyanopyridin-3-yl)methoxy)-4-((2-methyl-3-(7-methyl-2-(1-methylpiperidin-4-yl)benzo[d]oxazol-5-yl)benzyl)oxy)benzyl)piperidine-2-carboxylic Acid], the figure is 1 to 5 nM. Consider `Cc1c(COc2cc(OCc3cncc(C#N)c3)c(CN3CCCC[C@H]3C(=O)O)cc2Cl)cccc1-c1ccc2oc(C3CCN(C)CC3)nc2c1C` [Example 1010, (S)-1-(5-chloro-2-((5-cyanopyridin-3-yl)methoxy)-4-((2-methyl-3-(4-methyl-2-(1-methylpiperidin-4-yl)benzo[d]oxazol-5-yl)benzyl)oxy)benzyl)piperidine-2-carboxylic Acid], for which the IC50 was in the range of 1 to 5 nM. `Cc1c(COc2cc(OCc3cncc(C#N)c3)c(CN3CCCC[C@H]3C(=O)O)cc2Cl)cccc1-c1ccc2oc(C3(C)CCNCC3)nc2c1` [Example 1011, (S)-1-(5-chloro-2-((5-cyanopyridin-3-yl)methoxy)-4-((2-methyl-3-(2-(4-methylpiperidin-4-yl)benzo[d]oxazol-5-yl)benzyl)oxy)benzyl)piperidine-2-carboxylic Acid]: the IC50 fell in the range of 1 to 5 nM. Same read-out and setting: as for `CCN(CC)C1CCC(c2nc3cc(-c4cccc(COc5cc(OCc6cncc(C#N)c6)c(CN6CCCC[C@H]6C(=O)O)cc5Cl)c4C)ccc3o2)CC1` (stereo partly drawn) [Example 1012, (S)-1-(5-chloro-2-((5-cyanopyridin-3-yl)methoxy)-4-((3-(2-(4-(diethylamino)cyclohexyl)benzo[d]oxazol-5-yl)-2-methylbenzyl)oxy)benzyl)piperidine-2-carboxylic Acid], the figure is 0.18 to 0.99 nM; as for `Cc1c(COc2cc(OCc3cncc(C#N)c3)c(CN3CCCC[C@H]3C(=O)O)cc2Cl)cccc1-c1ccc2oc(C3CCN(C(C)C)CC3)nc2c1` [Example 1013, (S)-1-(5-chloro-2-((5-cyanopyridin-3-yl)methoxy)-4-((3-(2-(1-isopropylpiperidin-4-yl)benzo[d]oxazol-5-yl)-2-methylbenzyl)oxy)benzyl)piperidine-2-carboxylic Acid], 1 to 5 nM. As to `Cc1c(COc2cc(OCc3cncc(C#N)c3)c(CN3CCCC[C@H]3C(=O)O)cc2Cl)cccc1-c1ccc2oc(C3CC4CCC(C3)N4C)nc2c1` (stereo partly drawn) [Example 1014, (2S)-1-(5-chloro-2-((5-cyanopyridin-3-yl)methoxy)-4-((2-methyl-3-(2-(8-methyl-8-azabicyclo[3.2.1]octan-3-yl)benzo[d]oxazol-5-yl)benzyl)oxy)benzyl)piperidine-2-carboxylic Acid], the IC50 is 1 to 5 nM. For `Cc1c(COc2cc(OCc3cncc(C#N)c3)c(CN3CCCC[C@H]3C(=O)O)cc2Cl)cccc1-c1ccc2oc(C34CC(N)(C3)C4)nc2c1` [Example 1015, (S)-1-(4-((3-(2-(3-aminobicyclo[1.1.1]pentan-1-yl)benzo[d]oxazol-5-yl)-2-methylbenzyl)oxy)-5-chloro-2-((5-cyanopyridin-3-yl)methoxy)benzyl)piperidine-2-carboxylic Acid], the 50% inhibitory concentration (IC50) is 5.01 to 10.1 nM.
